From the supplement of paper PMC10307832

Columns and labels:
Experiment in all cases: relative viability (nuclei count vs DMSO), 5 days (fraction); higher = more cells survive
Shikonin + Olaparib = compound: CC(C)=CC[C@@H](O)C1=CC(=O)c2c(O)ccc(O)c2C1=O [Shikonin] + O=C(c1cc(Cc2n[nH]c(=O)c3ccccc23)ccc1F)N1CCN(C(=O)C2CC2)CC1 [Olaparib] (partner 8 µM)
Procedure, shortened: (§1)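 Lung cancer cell lines in 1536-well plates got either a single drug or a fixed anchor-drug dose together with five library-drug doses (not always all listed) in √10 steps, by pin tool, on the day after seeding. Nuclei were counted after 5 days, and relative viability is the treated-to-vehicle ratio of nuclei counts. Values are medians of duplicate plates.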

Shikonin + Lapatinib = compound: CC(C)=CC[C@@H](O)C1=CC(=O)c2c(O)ccc(O)c2C1=O [Shikonin] + CS(=O)(=O)CCNCc1ccc(-c2ccc3ncnc(Nc4ccc(OCc5cccc(F)c5)c(Cl)c4)c3c2)o1 [Lapatinib] (partner 2 µM)
Procedure, shortened: as §1

Shikonin + Tozasertib = compound: CC(C)=CC[C@@H](O)C1=CC(=O)c2c(O)ccc(O)c2C1=O [Shikonin] + Cc1cc(Nc2cc(N3CCN(C)CC3)nc(Sc3ccc(NC(=O)C4CC4)cc3)n2)n[nH]1 [Tozasertib] (partner 0.1 µM)
Procedure, shortened: as §1

Shikonin + Bortezomib = compound: CC(C)=CC[C@@H](O)C1=CC(=O)c2c(O)ccc(O)c2C1=O [Shikonin] + CC(C)C[C@H](NC(=O)[C@H](Cc1ccccc1)NC(=O)c1cnccn1)B(O)O [Bortezomib] (partner 0.002 µM)
Procedure, shortened: as §1

Shikonin + Linsitinib = compound: CC(C)=CC[C@@H](O)C1=CC(=O)c2c(O)ccc(O)c2C1=O [Shikonin] + C[C@]1(O)C[C@@H](c2nc(-c3ccc4ccc(-c5ccccc5)nc4c3)c3c(N)nccn32)C1 [Linsitinib] (partner 1 µM)
Procedure, shortened: as §1

| Cell Line | relative viability (Shikonin + Olaparib; first compound 0.01 µM) | relative viability (Shikonin + Olaparib; first compound 0.1 µM) | relative viability (Shikonin + Olaparib; first compound 0.3162 µM) | relative viability (Shikonin + Olaparib; first compound 1 µM) | relative viability (Shikonin + Lapatinib; first compound 0.01 µM) | relative viability (Shikonin + Lapatinib; first compound 0.1 µM) | relative viability (Shikonin + Lapatinib; first compound 0.3162 µM) | relative viability (Shikonin + Lapatinib; first compound 1 µM) | relative viability (Shikonin + Tozasertib; first compound 0.01 µM) | relative viability (Shikonin + Tozasertib; first compound 0.1 µM) | relative viability (Shikonin + Tozasertib; first compound 0.3162 µM) | relative viability (Shikonin + Tozasertib; first compound 1 µM) | relative viability (Shikonin + Bortezomib; first compound 0.01 µM) | relative viability (Shikonin + Bortezomib; first compound 0.1 µM) | relative viability (Shikonin + Bortezomib; first compound 0.3162 µM) | relative viability (Shikonin + Bortezomib; first compound 1 µM) | relative viability (Shikonin + Linsitinib; first compound 0.01 µM) | relative viability (Shikonin + Linsitinib; first compound 0.1 µM) | relative viability (Shikonin + Linsitinib; first compound 0.3162 µM) | relative viability (Shikonin + Linsitinib; first compound 1 µM) |
| --- | --- | --- | --- | --- | --- | --- | --- | --- | --- | --- | --- | --- | --- | --- | --- | --- | --- | --- | --- | --- |
| HCC-827 | 0.678 | 0.562 | 0.621 | 0.52 | 0.166 | 0.17 | 0.191 | 0.19 | 0.452 | 0.456 | 0.432 | 0.453 | 1.11 | 1.06 | 1.03 | 1.1 | 0.909 | 1.09 | 0.999 | 0.906 |
| NCI-H1975 | 0.815 | 0.836 | 0.955 | 0.715 | 0.871 | 1.17 | 0.859 | 0.896 | 0.865 | 0.83 | 0.764 | 0.701 | 0.273 | 0.365 | 0.452 | 0.363 | 1.11 | 0.985 | 1.01 | 0.793 |
| NCI-H1651 | 0.173 | 0.188 | 0.161 | 0.178 | 0.714 | 0.925 | 0.919 | 0.844 | 0.8 | 0.783 | 0.744 | 0.748 | 0.986 | 1.06 | 0.948 | 0.928 | 0.974 | 1.12 | 0.996 | 1.01 |
| NCI-H460 | 0.584 | 0.615 | 0.515 | 0.39 | 1.32 | 1.51 | 0.951 | 1.12 | 0.456 | 0.496 | 0.483 | 0.414 | 1.35 | 0.78 | 1.03 | 1.3 | 0.914 | 0.819 | 0.992 | 0.904 |
| LCLC-97TM1 | 0.383 | 0.539 | 0.48 | 0.419 | 1.28 | 0.998 | 1.09 | 0.921 | 0.254 | 0.21 | 0.222 | 0.17 | 0.331 | 0.721 | 0.814 | 0.631 | 0.175 | 0.176 | 0.173 | 0.162 |
| PC-14 | 0.282 | 0.235 | 0.191 | 0.121 | 0.334 | 0.342 | 0.329 | 0.326 | 0.619 | 0.638 | 0.743 | 0.652 | 0.973 | 0.953 | 1.02 | 0.881 | 0.978 | 0.997 | 1.12 | 0.983 |
| NCI-H1355 | 0.811 | 0.812 | 0.786 | 0.776 | 1.07 | 1.05 | 1.07 | 1.05 | 0.559 | 0.553 | 0.554 | 0.583 | 1.24 | 1.25 | 1.22 | 1.23 | 0.764 | 0.943 | 0.887 | 0.855 |
| HOP-62 | 0.267 | 0.455 | 0.379 | 0.676 | 1.04 | 1.13 | 0.908 | 1.03 | 0.369 | 0.407 | 0.369 | 0.38 | 0.958 | 0.715 | 0.875 | 0.902 | 0.994 | 0.806 | 0.987 | 0.807 |
| NCI-H2087 | 0.696 | 0.544 | 0.592 | 0.551 | 1.03 | 1.38 | 1.15 | 0.954 | 0.307 | 0.254 | 0.198 | 0.202 | 0.951 | 0.888 | 1.14 | 0.898 | 1.27 | 1.3 | 0.927 | 0.839 |
